The subject of one series is relapsing MS patients. As to conditions: Phase 2; cited from earlier work.
The next series relates to patients with RMS. As to conditions: 2 Phase 3 trials; over 2 years; cited from earlier work.
The next series concerns peripheral B-cell. In words: Phase I/II study of single low-dose SC ofatumumab in rheumatoid arthritis: peripheral B-cell depletion. Format: in vivo, human. The note with it: RA patients on stable MTX; single SC doses of 30, 60 or 100 mg. On the procedure: (§1) Ofatumumab targets a novel epitope on the CD20 molecule distinct from rituximab (RTX), a chimeric anti-CD20 MAb. RTX studies have utilized high intravenous (IV) doses (two 1000 mg doses 14 days apart) leading to very rapid B cell lysis resulting in infusion reactions despite the use of IV corticosteroid (CS) premedication. The first study involving ofatumumab was a phase I/II study to investigate the use of a low dose subcutaneous (SC) formulation of ofatumumab in rheumatoid arthritis (RA), administered without CS, potentially providing more controlled B cell depletion than that seen in the RTX studies. The primary objective was to investigate the safety and tolerability of a single SC dose of ofatumumab in rheumatoid arthritis (RA) patients on background methotrexate (MTX). Secondary objectives included investigating the minimum dose to achieve target peripheral B-cell depletion, the pharmacodynamic dose-response curve and B-cell repletion profile. […] Single doses up to 60 mg were tolerated and may provide a method of achieving B-cell depletion without additional CS premedication. This study established that the duration of peripheral B cell depletion increases with dose of ofatumumab (ofatumumab), an anti-CD20 antibody.

Series [1] in a line: Phase I/II study of single low-dose SC ofatumumab in rheumatoid arthritis: safety and tolerability. It is filed as in vivo, human. The note with it: RA patients; single doses up to 60 mg, without CS premedication. On the procedure: as §1
Series [2] relates to relapsing-remitting multiple sclerosis (RRMS). In words: Study OMS112831/MIRROR, repeat-dose SC ofatumumab in RRMS: brain MRI lesions and relapses. It is filed as in vivo, human. As to conditions: for reduction of mean cumulative number of new gadolinium-enhancing lesions vs placebo: p<0.001. An excerpt: The primary endpoint was the cumulative number of new gadolinium-enhancing lesions during weeks 0-12 on brain magnetic resonance imaging (MRI). Other endpoints included • (i) the cumulative number of new Gd-enhancing lesions at other time points; • (ii) (ii) the total volume at weeks 12 and 24 of a) new Gd-enhancing lesions, b) new/newly enlarged T2 lesions, and c) T1 hypointense lesions; • (iii) the proportion of patients free from relapses; • (iv) Expanded Disability Status Scale (EDSS) scores; • (v) Multiple Sclerosis Functional Composite (MSFC) and their component scores; • (vi) Modified Fatigue Impact Scale (MFIS); and • (vii) Evaluation of the use of the initial conditioning ofatumumab dose.

The subject of the next series is CD19+ B cells. In words: Study OMS112831/MIRROR: CD19 B-cell counts. Format: in vivo, human.
The conditions of series [3]: in vivo.
Procedure: (§2) In this study, called MIRROR (MRI study In RRMS: evaluating ofatumumab Regimen), patients received ofatumumab 3 mg, 30 mg, or 60 mg every 12 weeks (q12w), or ofatumumab 60 mg every 4 weeks (q4w). To evaluate whether tolerability to the higher ofatumumab doses (30 mg and 60 mg) could be improved by the administration of an initial, lower, conditioning dose of ofatumumab (theoretically leading to the gradual lysis of B cells and potentially reducing cytokine release reactions), patients in the 30 mg q12w, 60 mg q12w and 60 mg q4w dose groups were randomized (1:1) to receive either placebo or a conditioning dose of ofatumumab 3 mg at week 0.
For series [4] the following is noted: oncology studies; Arzerra US prescribing information 2016; cited from earlier work.
The subject of another series is patients with RRMS. The note with it: iv 100, 300, 700 mg; each dose level, both treatment periods; cited from earlier work.
A further series relates to circulating B-cell. The note with it: iv 100, 300, 700 mg; each dose level; cited from earlier work.

Where only a bound is given, the exact number is not on record here.

Procedure for CD19+ B cells: as §2

Turning to ocrelizumab, in the series with relapsing MS patients, the MRI-measured inflammatory activity entry is “marked reductions”. The “relapse rates vs interferon beta 1a” value in the series with patients with RMS is “significantly reduced”.
In the case of ofatumumab, the “peripheral B-cell depletion” value with peripheral B-cell was “profound and sustained peripheral B-cell depletion”. In series [1], the “tolerability of single SC dose” value is listed as “tolerated”. The MRI effect result in series [2] (3 mg every 12 weeks) is given as “clear MRI effect”. The MRI efficacy result in [2] (30 mg every 12 weeks) is reported as “very close to maximal MRI efficacy”. Besides, in [2] (60 mg every 4 weeks), the “added efficacy compared with 60 mg every 12 weeks” value was “didn't add any efficacy”. Further, in series [2] (weeks 0-12), the “reduction of cumulative new/newly enlarged T2 lesions vs placebo” value is reported as 60-72% and the “reduction of mean cumulative number of new gadolinium-enhancing lesions vs placebo” value stood at 65%. For the same substance, the “patients who experienced a relapse” value in [2] (weeks 0-12, 17/164 patients) is recorded as 10%. Besides, the “reduction of mean cumulative number of new gadolinium-enhancing lesions vs placebo” value in series [2] (weeks 4-12, post hoc analysis, cumulative ofatumumab doses 2::30 mg) is no less than 90%. For the same substance, the “depletion of CD19 B-cells” value with CD19+ B cells (3, 30, 60 mg q12w, 60 mg q4w SC) is on record as “dose-dependently”. For the same substance, the “B-cell repopulation once dosing ceased” value in the series on CD19+ B cells (all treatments, over 60 weeks of follow up, compared to high-dose i.v. anti-CD20 antibodies) is listed as “relatively rapid B-cell repopulation”. Besides, in the series on CD19+ B cells (monthly dosing (60 mg q4 weeks)), the “B-cell repletion during the inter-dosing interval” value was “no signs of B-cell repletion”. In addition, in [3], the “adverse events versus lower dose regimens of 3 or 30 mg q12 weeks” value is listed as “more adverse events”, the “injection-related reactions (most commonly reported AE)” value was 52%, the “injection-related reactions mild/moderate in severity” value was 97 % of the events and the opportunistic infections entry is “no cases”. Also, the “overall safety and tolerability” value in series [3] was “safe and well tolerated”. Also, the “incidence of anti-drug antibodies (ADA) against ofatumumab” value in [4] was < 1 % of patients. Also, the “reduction in MRI lesion activity versus placebo” value with patients with RRMS is given as “up to 96%”. The “circulating B-cell counts” value in the series on circulating B-cell was “profound reduction”.
Regarding rituximab, the MRI-measured inflammatory activity result in the series with relapsing MS patients is recorded as “marked reductions”.

Source of the values: patent US12723096B2, “Regimens and methods of treating multiple sclerosis using ofatumumab” (Novartis AG, priority 2016, dated 2026).
